{
  "source": "patent US20070015733A1",
  "about": "“Aryl Phosphate Derivatives of d4T having Activity Against Resistant HIV Strains” (Parker Hughes Institute, priority 1998, published 2007)",
  "key": {"[1]": {"experiment": "Stability in plasma, whole blood, gastric fluid and intestinal fluid", "assay_type": "in vitro ADME", "details": "plasma or whole blood", "procedure": "Ala-d4T-MP is stable both in plasma and in whole blood. […] This hypothesis is consistent with the formation of a significant amount of d4T after incubation of d4T-5′-[p-bromophenyl methoxyalaninyl phosphate] with a liver homogenate.\nOrally administered d4T-5′-[p-bromophenyl methoxyalaninyl phosphate] also yielded Ala-d4T-MP and d4T as the major metabolites. […] This metabolite can be absorbed in the intestine and then further metabolized to yield d4T in the blood. The tmax and t1/2 values for d4T in mice were longer when derived from orally administered d4T-5′-[p-bromophenyl methoxyalaninyl phosphate] (42.4 minutes and 99.0 minutes, respectively) than from orally administered d4T (5 minutes and 18 minutes, respectively). The tmax value is higher but the t1/2 value is lower for orally administered d4T-5′-[p-bromophenyl methoxyalaninyl phosphate] compared to intravenously administered d4T-5′-[p-bromophenyl methoxyalaninyl phosphate]. […] However, the bioavailability of d4T metabolized from d4T-5′-[p-bromophenyl methoxyalaninyl phosphate] (48%) was lower than that of orally administered d4T (98%)."}, "[2]": {"experiment": "Pharmacokinetics after intravenous or oral administration", "assay_type": "in vivo, mice", "details": "intravenous administration"}, "[3]": {"test_system": "HIV-1 (HTLVIIIB) in TK-deficient CEM T-cells", "experiment": "Inhibition of HIV-1 replication in TK-deficient CEM T-cells (p24 / RT activity)", "assay_type": "cell-based", "procedure": "(§1) Percent inhibition of viral replication was calculated by comparing the p24 and RT activity values from the test substance-treated infected cells with those from untreated infected cells. In parallel, the cytotoxicity of the compounds was examined using a microculture tetrazolium assay (MTA) of cell proliferation, as described.in the Zarling, Enrice, and Uckun articles Supra).\n(§2) Cellular Assays of Anti-HIV Activity and Cytotoxicity. […] Percent viral inhibition was calculated by comparing the RT activity values from the test substance-treated infected cells with RT values from untreated infected cells (i.e., virus controls)."}, "[4]": {"experiment": "Microculture tetrazolium assay (MTA) cytotoxicity in CEM cells", "details": "human", "procedure": "as §1, §2"}, "[5]": {"test_system": "AZT- and NNI-resistant HIV-1 (strain: RTMDR-1)", "experiment": "Inhibition of RTMDR-1 (HIV-MDR) replication in PBMNC (RT activity)", "assay_type": "cell-based", "procedure": "as §2"}, "HIV-1 (strain: HTLVIIIB)": {"test_system": "HIV-1 (strain: HTLVIIIB)", "experiment": "microbe, parasite or virus in culture", "assay_type": "cell-based", "details": "Human immunodeficiency virus 1, read-out: PBMNC IC50 [RT], PBMNC; unit not given in Table 5 (0.04 = 40 nM)", "procedure": "as §1, §2"}, "HIV-2 (Strain: CBL-20)": {"test_system": "HIV-2 (Strain: CBL-20)", "experiment": "Inhibition of HIV-2 replication in PBMNC (RT activity)", "assay_type": "cell-based", "procedure": "(P-AZT) and with AZT. The incubation and analysis methods used were as described above for Example 3.\nas §2"}, "[6]": {"experiment": "Microculture tetrazolium assay (MTA) cytotoxicity in PBMNC", "details": "human", "procedure": "as §1, §2\n(§3) Antiviral susceptibility assays. Phenotypic drug susceptibility studies of HIV-1 isolates and strains were performed by measuring the production of the p24 gag protein in peripheral blood mononuclear cells (PBMC) from seronegative healthy volunteers in the presence of increasing concentrations of the anti-HIV agent using the quantitative Coulter HIV-1 p24 antigen ezyme immunoassay (EIA) and HIV-1 p24 Antigen Kinetic Standard (Beckman Coulter), as previously described (Uckun, 1998, Antimicrobial Agents and Chemotherapy 37(4): 835-38). Informed consent was obtained from the blood donors according to DHHS guidelines using consent forms approved by the Institutional Review Board. In brief, PBMC were cultured for 72 h in RPMI 1640 medium (Gibco) supplemented with 20% (vol/vol) heat-inactivated fetal bovine serum, 5% human interleukin-2 (Zeptometrix), 2 mM L-glutamine, 25 mM HEPES, 2 g/L NaHCO3, 100 U/ml penicillin/streptomycin (Gibco), 50 μg/ml gentamicin (Gibco), and 5 μg/ml phytohemagglutinin-P (PHA-P) (Sigma) for 24-72 hours prior to exposure to HIV at a multiplicity of infection of 0.001-0.1 during a 1-h adsorbtion period at 37±1° C. in a humidified 5-7% CO2 atmosphere. Subsequently, cells were cultured in 96-well microtiter plates (100 μl/well; 2×10^6 cells/ml, triplicate wells) in the presence of the anti-HIV agents at 6-7 different concentrations ranging from 0.0001 μM to 100 μM, and 25 μL aliquots of culture supernatants were removed from the wells on day 6 after infection for p24 EIA, as previously described (Uckun, 1998, Antimicrobial Agents and Chemotherapy, 37(4):835-38). Controls included uninfected and untreated cells (background control) and infected but untreated (virus control) cells. The p24 EIA utilizes a murine monoclonal antibody to HIV core protein used to coat microwell strips to which the antigen present in the test culture supernatant samples binds. Percent inhibition of viral replication was calculated by comparing the p24 values from the test substance-treated infected cells with p24 values from untreated infected cells (i.e., virus controls). The IC50 values were determined using the Statview statistics program (SAS Institute, Inc.). In parallel, the effects of various treatments on cell viability were also examined as previously described (Uckun, 1998, Antimicrobial Agents and Chemotherapy, 42:383-388). In brief, noninfected PBMC were treated with each compound for 5 days under identical experimental conditions. A microculture tetrazolium assay (MTA) was performed to quantitate cellular proliferation (Uckun, 1998, Antimicrobial Agents and Chemotherapy, 42:383-388).\nIn parallel, the cytotoxicity of the compounds was examined using a microculture tetrazolium assay (MTA) of cell proliferation, as described (in the Zarling, Enrice, and Uckun articles Supra)."}, "HIV-1 HTLVIIIB": {"test_system": "HIV-1 HTLVIIIB", "experiment": "microbe, parasite or virus in culture", "procedure": "In vitro assays of anti-HIV-1 activity. Normal human peripheral blood mononuclear cells (PBMNC) from HIV-negative donors were cultured 72 hours in RPMI 1640 supplemented with 20% (v/v) heat-inactivated fetal bovine serum (FBS), 3% interleukin-2, 2 mM L-glutamine, 25 mM HEPES, 2 g/L NaHCO3, […], and […] prior to exposure to HIV-1 at a multiplicity of infection (MOI) of 0.1 during a 1 hour adsorption period at 37° C. in a humidified 5% CO2 atmosphere. Subsequently, cells were cultured in 96-well microtiter plates ([…]; 2×10^6 cells/mL) in the presence of various concentrations of d4T phosphoramidates and aliquots of culture supernatants were removed from the wells on the 7th day after infection for p24 antigen assays, as previously described (Uckun et al., 1998, Antimicrobial Agents and Chem., 42(2):383-388). The applied p24 enzyme immunoassay (EIA) was the unmodified kinetic assay commercially available from Coulter Corporation/Immunotech, Inc. (Westbrooke, Me.), which utilizes a murine mAb to HIV core protein coated onto microwell strips to which the antigen present in the test culture supernatant samples binds. Percent viral inhibition was calculated by comparing the p24 values from untreated infected cells (i.e., virus controls).\nThe anti-HIV activity of the compounds was examined by evaluating their ability to inhibit HIV replication in peripheral blood mononuclear cells using previously described procedures (Uckun et al., 1998, Antimicrobial Agents and Chem., 42(2):383-388). Percent inhibition of viral replication was calculated by comparing the p24 antigen levels from the test substance-treated infected cells with those from vehicle-treated infected cells.\nas §3, with “Inc.).” for “Inc.). In parallel, the effects of various treatments on cell viability were also examined as previously described (Uckun, 1998, Antimicrobial Agents and Chemotherapy, 42:383-388). In brief, noninfected PBMC were treated with each compound for 5 days under identical experimental conditions. A microculture tetrazolium assay (MTA) was performed to quantitate cellular proliferation (Uckun, 1998, Antimicrobial Agents and Chemotherapy, 42:383-388).”"}, "[7]": {"details": "Human immunodeficiency virus 1, PBMC"}},
  "note": "Where two headings read alike, the source gives them in different places.",
  "data": [
    {"smiles": "Cc1cn([C@H]2C=C[C@@H](COP(=O)(O)NC(C)C(=O)O)O2)c(=O)[nH]c1=O", "note": "(stereo partly drawn) [Ala-d4T-MP, alaninyl-d4T-monophosphate]", "values": [
      {"measurement": "stability in plasma and whole blood", "setting": "[1]", "value": "stable"},
      {"measurement": "elimination half-life (t1/2) of the administered substance", "setting": "[2]", "value": 28.5, "unit": "min"}
    ]},
    {"smiles": "COC(=O)C(C)NP(=O)(OC[C@H]1O[C@@H](n2cc(C)c(=O)[nH]c2=O)CC1N=[N+]=[N-])Oc1ccc(Br)cc1", "note": "(stereo partly drawn) [Compound 5c, AZT-5′-(para-bromophenylmethoxyalaninyl phosphate)]", "values": [
      {"measurement": "IC50", "setting": "[3]; Human immunodeficiency virus 1, CCRF-CEM, TK-deficient CEM cells, read-out: IC50 value for inhibition of RT activity", "value": 0.04, "unit": "µM"},
      {"measurement": "IC50", "setting": "[3]; Human immunodeficiency virus 1, T-cell, TK-deficient CEM T-cells, Table 5, read-out: CEM IC50 [RT]", "value": 0.04, "unit": "µM"},
      {"measurement": "times more effective than AZT in inhibiting HIV replication", "setting": "[3]; TK-deficient CEM cells", "value": 5, "unit": "times"},
      {"measurement": "IC50", "setting": "[4]", "value": "> 10", "unit": "µM"},
      {"measurement": "IC50", "setting": "[5]; Human immunodeficiency virus 1, read-out: HIV-MDR IC50 [RT]", "value": 1.5, "unit": "µM"},
      {"measurement": "IC50", "setting": "[5]; Human immunodeficiency virus 1, read-out: IC50 against HIV-MDR", "value": 1.5, "unit": "µM"},
      {"measurement": "IC50", "setting": "[5]; Human immunodeficiency virus 1, read-out: RTMDR-1 IC50 [RT]", "value": 1.5, "unit": "µM"},
      {"measurement": "antiviral activity against RTMDR-1 (in words)", "setting": "[5]; PBMNC", "value": "not effective"},
      {"measurement": "IC50", "setting": "HIV-1 (strain: HTLVIIIB)", "value": 0.004, "unit": "µM"},
      {"measurement": "IC50", "setting": "HIV-2 (Strain: CBL-20); Human immunodeficiency virus 2, read-out: HIV-2 IC50 [RT]", "value": 3.9, "unit": "µM"},
      {"measurement": "antiviral activity against HIV-2 (in words)", "setting": "HIV-2 (Strain: CBL-20); PBMNC", "value": "not effective"},
      {"measurement": "IC50 at 5 days", "setting": "[6]", "value": "> 10", "unit": "µM"}
    ]},
    {"smiles": "Cc1c(O)cccc1C(=O)N[C@@H](CSc1ccccc1)[C@H](O)CN1C[C@H]2CCCC[C@H]2C[C@H]1C(=O)NC(C)(C)C", "note": "[nelfinavir]", "values": [
      {"measurement": "SI(CC50/IC50)", "setting": "HIV-1 HTLVIIIB", "value": 583},
      {"measurement": "IC50", "setting": "HIV-1 HTLVIIIB; [7]", "value": "0.006 ± 0.003", "unit": "µM"},
      {"measurement": "IC90", "setting": "HIV-1 HTLVIIIB; [7]", "value": "0.084 ± 0.038", "unit": "µM"},
      {"measurement": "CC50 at 5 days", "setting": "[6]", "value": "3.5 ± 1.4", "unit": "µM"}
    ]}
  ]
}
